{"source": "paper PMC7589136", "about": "“The Human Digestive Tract Is Capable of Degrading Gluten from Birth” (International Journal of Molecular Sciences, 2020)", "key": {"[1]": {"test": "Peptidase activity of desalted fecal protein extracts against 33-mer, 19-mer and 13-mer gliadin peptides (HPLC)", "format": "in vitro ADME, human", "conditions": "for Degradation capacity of new-born fecal samples against peptide / Degradation of peptide by feces samples / Degradation of peptide by fecal protein extract / Degradation of peptide by meconium protein extract: 60 μM peptide, 37 °C; for Degradation capacity of new-born fecal samples against peptide: in some cases intermediate peptides observed; for Degradation of peptide by feces samples: up to 12 month-olds; for Degradation of peptide by fecal protein extract / Degradation of peptide by meconium protein extract: 0.8 mg/mL extract; for Degradation of peptide by fecal protein extract: HPLC UV 215 nm; for Degradation of peptide by meconium protein extract: reverse-phase HPLC, UV 215 nm", "experimental": "Step 1: Sample preparation: Fecal samples were homogenized by mechanical stirring (90 min) in 10 mM Tris-HCl, pH 7.5 (1:5 w/v) and centrifuged (3100× g, 30 min). The supernatant was re-centrifuged at 30,000× g for 20 min.\nStep 2: Ammonium sulphate fractionation: Each supernatant obtained from step 1 was precipitated with ammonium sulphate. The 80% ammonium sulphate precipitate (containing glutenase activity) was collected by centrifugation at 30,000× g, 20 min. The pellet was dissolved in 10 mM Tris-HCl (pH 7.5) and ammonium sulphate was eliminated by passing through a Sephadex G-25 (PD-10) column (GE Healthcare Live Sources, San Diego, CA USA) equilibrated with Tris-ClH (pH 5) in accordance with manufacturer’s indications.\nPeptides used in this paper were: 33-mer ([…]), 19-mer (LGQQQPFPPQQPYPQPQPF), and 13-mer (LGQQQPFPPQQPY) synthetized by Bionova Científica, S.L. (Madrid, Spain) with purification grade around 96%.\nWe assayed 33-mer, 19-mer, and 13-mer hydrolysis as described previously, with modifications. Briefly, reaction mixtures containing 0.8 mg/mL of desalted protein extract (see step 2.2), 33-, 19-, or 13-mer peptide (60 μM) were incubated at 37 °C for 60 min and then stopped by boiling at 100 °C. 10-µL of each filtered aliquot was subjected to reverse-phase HPLC. The elution phases consisted of (A) MilliQ H2O containing 0.1% trifluoroacetic acid (TFA) (v/v) and (B) acetonitrile and 0.1% TFA (v/v). The eluate was monitored by measuring UV absorbance at 215 nm. Negative controls included runs with proteins denatured by boiling for 15 min, or 33-, 19-, and 13-mer peptides assayed without protein extract."}, "[2]": {"system": "elastase 3B, elastase 2A, and carboxypeptidase A1", "conditions": "cited from earlier work"}, "[3]": {"conditions": "elastase 3B, elastase 2A, and carboxypeptidase A1 from human feces"}}, "note": "Read-outs that look alike come from different tables or passages of the source. Ends that are not written are not given here.", "data": [{"sequence": "LGQQQPFPPQQPY [13-mer]", "values": [{"measurement": "Degradation capacity of new-born fecal samples against peptide", "setting": "[1]; 60 min, HPLC", "value": "total degradation"}, {"measurement": "Degradation of peptide by feces samples", "setting": "[1]; 60 min, HPLC", "value": "able to degrade"}, {"measurement": "Degradation of peptide by fecal protein extract", "setting": "[1]; volunteers >300 months old (the only group that did not degrade it completely), 60 min", "value": "not able to complete degrade"}, {"measurement": "Hydrolysis of peptide by gastrointestinal proteases", "setting": "[2]; [3]", "value": "fully"}]}, {"sequence": "LGQQQPFPPQQPYPQPQPF [19-mer]", "values": [{"measurement": "Hydrolysis of peptide by gastrointestinal proteases", "setting": "[2]", "value": "fully"}]}, {"sequence": "LQLQPFPQPQLPYPQPQLPYPQPQLPYPQPQPF [33-mer]", "values": [{"measurement": "Hydrolytic activity of meconium samples against peptide", "setting": "[1]; all 21 meconium samples, HPLC", "value": "showed hydrolytic activity"}, {"measurement": "Degradation of peptide by meconium protein extract", "setting": "[1]; desalted meconium protein extract of newborn volunteer 15, 60 min, intermediate peptides generated", "value": "only partially degraded"}, {"measurement": "Degradation of peptide by meconium protein extract", "setting": "[1]; desalted meconium protein extracts of newborn volunteers 3 and 9, 60 min", "value": "completely degrade"}, {"measurement": "Degradation capacity of new-born fecal samples against peptide", "setting": "[1]; 60 min, HPLC", "value": "total degradation"}, {"measurement": "Degradation of peptide by feces samples", "setting": "[1]; 60 min, HPLC", "value": "able to degrade"}, {"measurement": "Degradation of peptide by fecal protein extract", "setting": "[1]; volunteers 0–2 months old, 60 min", "value": "completely degrade"}, {"measurement": "Degradation of peptide by fecal protein extract", "setting": "[1]; volunteers 2–6 months old, 60 min", "value": "completely degrade"}, {"measurement": "Degradation of peptide by fecal protein extract", "setting": "[1]; volunteers over 48 months old, 1 h", "value": "unable to completely degrade"}, {"measurement": "Hydrolysis of peptide by gastrointestinal proteases", "setting": "[2]; [3]", "value": "partially"}]}]}
